Key:
Assay in all cases: relative viability (nuclei count vs DMSO), 5 days (fraction); higher = more cells survive
Adavosertib + Bortezomib = compound: C=CCn1c(=O)c2cnc(Nc3ccc(N4CCN(C)CC4)cc3)nc2n1-c1cccc(C(C)(C)O)n1 [Adavosertib] + CC(C)C[C@H](NC(=O)[C@H](Cc1ccccc1)NC(=O)c1cnccn1)B(O)O [Bortezomib] (partner 0.002 µM)
In short: (§1)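 Relative viability equals treated-well nuclei counts divided by vehicle-well nuclei counts. Counts came from 4× images of lung cancer cell lines grown in 1536-well plates for 5 days after pin-tool dosing on the day after seeding. Dosing used one drug alone or a fixed anchor-drug dose plus five library-drug doses (not always all listed) in √10 steps, and values are medians of duplicate plates.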

Adavosertib + Decitabine = compound: C=CCn1c(=O)c2cnc(Nc3ccc(N4CCN(C)CC4)cc3)nc2n1-c1cccc(C(C)(C)O)n1 [Adavosertib] + Nc1ncn([C@H]2C[C@H](O)[C@@H](CO)O2)c(=O)n1 [Decitabine] (partner 2 µM)
In short: as §1

Nelarabine + Luminespib = compound: COc1nc(N)nc2c1ncn2[C@@H]1O[C@H](CO)[C@@H](O)[C@@H]1O [Nelarabine] + CCNC(=O)c1noc(-c2cc(C(C)C)c(O)cc2O)c1-c1ccc(CN2CCOCC2)cc1 [Luminespib] (partner 0.01 µM)
In short: as §1

Nelarabine + Dasatinib = compound: COc1nc(N)nc2c1ncn2[C@@H]1O[C@H](CO)[C@@H](O)[C@@H]1O [Nelarabine] + Cc1nc(Nc2ncc(C(=O)Nc3c(C)cccc3Cl)s2)cc(N2CCN(CCO)CC2)n1 [Dasatinib] (partner 0.075 µM)
In short: as §1

Cell Line | relative viability (Adavosertib + Bortezomib; first compound 0.01 µM) | relative viability (Adavosertib + Bortezomib; first compound 0.03162 µM) | relative viability (Adavosertib + Bortezomib; first compound 0.1 µM) | relative viability (Adavosertib + Bortezomib; first compound 0.3162 µM) | relative viability (Adavosertib + Decitabine; first compound 0.01 µM) | relative viability (Adavosertib + Decitabine; first compound 0.03162 µM) | relative viability (Adavosertib + Decitabine; first compound 0.1 µM) | relative viability (Adavosertib + Decitabine; first compound 0.3162 µM) | relative viability (Nelarabine + Luminespib; first compound 0.01 µM) | relative viability (Nelarabine + Luminespib; first compound 0.03162 µM) | relative viability (Nelarabine + Luminespib; first compound 0.1 µM) | relative viability (Nelarabine + Luminespib; first compound 0.3162 µM) | relative viability (Nelarabine + Luminespib; first compound 1 µM) | relative viability (Nelarabine + Dasatinib; first compound 0.01 µM) | relative viability (Nelarabine + Dasatinib; first compound 0.03162 µM) | relative viability (Nelarabine + Dasatinib; first compound 0.1 µM) | relative viability (Nelarabine + Dasatinib; first compound 0.3162 µM) | relative viability (Nelarabine + Dasatinib; first compound 1 µM)
HCC-827 | 1.02 | 1.04 | 1.06 | 1.06 | 0.15 | 0.344 | 0.341 | 0.214 | 0.889 | 0.68 | 0.644 | 0.511 | 0.385 | 0.431 | 0.241 | 0.166 | 0.295 | 0.361
A-427 | 0.906 | 1.04 | 0.964 | 0.861 | 0.53 | 0.554 | 0.55 | 0.469 | 0.96 | 0.982 | 0.721 | 0.964 | 0.983 | 0.721 | 0.662 | 0.753 | 0.736 | 0.789
NCI-H2009 | 1.09 | 1.05 | 1.04 | 1.02 | 0.362 | 0.419 | 0.414 | 0.37 | 1.16 | 1.05 | 1.02 | 1.07 | 1.05 | 0.348 | 0.288 | 0.2 | 0.307 | 0.315
EPLC-272H | 0.959 | 0.805 | 0.866 | 0.732 | 0.355 | 0.344 | 0.448 | 0.308 | 0.137 | 0.483 | 0.446 | 0.259 | 0.301 | 0.323 | 0.361 | 0.129 | 0.401 | 0.29
LC-2-ad | 1.11 | 1.08 | 1.09 | 1.16 | 0.696 | 0.733 | 0.87 | 0.889 | 1.1 | 1.09 | 0.932 | 1.08 | 0.916 | 0.556 | 0.647 | 0.463 | 0.529 | 0.611
RERF-LC-KJ | 1.14 | 1.02 | 1.19 | 1.28 | 0.669 | 0.718 | 0.775 | 0.714 | 1.41 | 1.31 | 1.34 | 1.27 | 1.31 | 0.824 | 0.884 | 0.716 | 0.808 | 0.761
EKVX | 0.992 | 1.14 | 0.996 | 1.27 | 0.329 | 0.388 | 0.383 | 0.4 | 0.946 | 0.771 | 0.809 | 0.796 | 0.915 | 0.509 | 0.468 | 0.396 | 0.575 | 0.608
LOU-NH91 | 0.484 | 0.502 | 0.502 | 0.489 | 0.819 | 0.821 | 0.798 | 0.852 | 0.392 | 0.45 | 0.354 | 0.346 | 0.356 | 0.628 | 0.591 | 0.436 | 0.585 | 0.605
NCI-H647 | 1.01 | 0.748 | 1.11 | 0.642 | 0.432 | 0.455 | 0.456 | 0.322 | 0.177 | 0.111 | 0.193 | 0.128 | 0.136 | 0.152 | 0.252 | 0.136 | 0.183 | 0.261
NCI-H3122 | 1.12 | 0.992 | 1.11 | 1.09 | 0.41 | 0.49 | 0.484 | 0.494 | 0.0966 | 0.11 |  | 0.12 | 0.115 | 1.08 | 0.661 |  | 0.81 | 0.948
NCI-H650 | 0.597 | 0.795 | 1.07 | 0.663 | 0.352 | 0.319 | 0.342 | 0.286 | 0.857 | 0.726 | 0.759 | 0.708 | 0.718 | 0.501 | 0.48 | 0.417 | 0.51 | 0.468
H3255 | 0.539 | 0.885 | 0.699 | 0.845 | 0.636 | 0.694 | 0.609 | 0.674 |  | 0.889 | 1 | 0.853 | 0.737 |  | 0.427 | 0.367 | 0.345 | 0.309
SW 1573 | 1.21 | 1.07 | 1.16 | 1.16 | 0.503 | 0.535 | 0.663 | 0.291 | 0.168 | 0.174 | 0.164 | 0.34 | 0.229 | 0.422 | 0.453 | 0.394 | 0.485 | 0.494
HCC-15 | 1.01 | 0.953 | 1.07 | 1.26 | 0.714 | 0.719 | 0.667 | 0.858 | 0.304 | 0.158 | 0.349 | 0.295 | 0.409 | 0.568 | 0.554 | 0.523 | 0.639 | 0.67
PC-3 [JPC-3] | 0.808 | 0.812 | 0.853 | 0.793 |  | 0.906 | 0.926 | 0.78 | 0.651 | 0.429 | 0.697 | 0.703 | 0.601 | 1.03 | 1.01 | 0.938 | 1.04 | 0.97
NCI-H1915 | 0.93 | 0.967 | 0.987 | 0.972 | 0.262 | 0.251 | 0.272 | 0.282 | 1.31 | 0.87 | 0.912 | 0.841 | 0.988 | 0.337 | 0.36 | 0.281 | 0.296 | 0.364
ChaGo-K-1 | 0.872 | 0.838 | 0.897 | 0.699 | 0.554 | 0.518 | 0.469 | 0.534 | 0.821 | 0.361 | 0.637 | 0.659 | 0.562 | 0.624 | 0.515 | 0.533 | 0.707 | 0.568
PC-14 | 1.05 | 0.873 | 0.926 | 0.334 | 0.249 | 0.226 | 0.259 | 0.101 | 0.145 | 0.177 | 0.118 | 0.178 | 0.151 | 0.253 | 0.233 | 0.131 | 0.304 | 0.315
